Laboratory results reported in the kinase profiling compilation of Christmann-Franck et al. (2016).
“And” between values parts separate entries of the source, which are not always exact repeats. Equal values may be shown once.

biological target: LYN (human) (UniProt P07948); assay: radiometric filter-binding kinase assay, Kinase HotSpot; settings: compound 0.5 µM; ATP 10 µM
Sequence (P07948 whole entry, looked up): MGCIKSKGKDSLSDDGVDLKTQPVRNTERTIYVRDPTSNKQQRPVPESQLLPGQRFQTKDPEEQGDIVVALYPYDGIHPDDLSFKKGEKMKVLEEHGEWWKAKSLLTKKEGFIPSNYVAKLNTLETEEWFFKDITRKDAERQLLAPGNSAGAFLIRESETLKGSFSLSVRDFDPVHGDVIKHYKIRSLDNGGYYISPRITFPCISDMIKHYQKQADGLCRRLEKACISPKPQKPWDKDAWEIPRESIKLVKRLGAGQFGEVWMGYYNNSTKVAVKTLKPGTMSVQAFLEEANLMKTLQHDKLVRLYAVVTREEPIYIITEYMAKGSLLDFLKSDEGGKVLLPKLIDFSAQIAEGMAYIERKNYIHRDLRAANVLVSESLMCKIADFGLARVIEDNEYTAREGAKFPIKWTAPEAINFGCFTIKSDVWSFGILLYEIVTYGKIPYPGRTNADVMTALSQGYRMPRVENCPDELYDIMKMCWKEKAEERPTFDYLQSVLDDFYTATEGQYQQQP

Row | SMILES | residual activity
1 | O=C(NC(NC(=S)Nc1ccc(F)c([N+](=O)[O-])c1)C(Cl)(Cl)Cl)C(c1ccccc1)c1ccccc1 (stereo unspecified) | 103% and 116%
2 | Cc1cc2ncc(-c3ccccc3)nc2cc1C | 100% and 98.2%
3 | Nc1n[nH]c2nnc(-c3c(-c4ccccc4)nn4ccccc34)cc12 | 94.9% and 97.1%

biological target: STK39 (human) (UniProt Q9UEW8); assay: as above; settings: compound 0.5 µM; ATP 10 µM

Row | SMILES | residual activity [%]
4 | O=C(NC(NC(=S)Nc1ccc(F)c([N+](=O)[O-])c1)C(Cl)(Cl)Cl)C(c1ccccc1)c1ccccc1 (stereo unspecified) | 77
5 | Cc1cc2ncc(-c3ccccc3)nc2cc1C | 103
6 | Nc1n[nH]c2nnc(-c3c(-c4ccccc4)nn4ccccc34)cc12 | 89.1

biological target: PRKACA (human) (UniProt P17612); assay: as above; settings: compound 0.5 µM; ATP 10 µM

Row | SMILES | residual activity [%]
7 | O=C(NC(NC(=S)Nc1ccc(F)c([N+](=O)[O-])c1)C(Cl)(Cl)Cl)C(c1ccccc1)c1ccccc1 (stereo unspecified) | 102
8 | Cc1cc2ncc(-c3ccccc3)nc2cc1C | 108
9 | Nc1n[nH]c2nnc(-c3c(-c4ccccc4)nn4ccccc34)cc12 | 97.7

biological target: KIT (human) (UniProt P10721); assay: as above; settings: compound 0.5 µM; ATP 10 µM

Row | SMILES | residual activity [%]
10 | O=C(NC(NC(=S)Nc1ccc(F)c([N+](=O)[O-])c1)C(Cl)(Cl)Cl)C(c1ccccc1)c1ccccc1 (stereo unspecified) | 97.2
11 | Cc1cc2ncc(-c3ccccc3)nc2cc1C | 63.5
12 | Nc1n[nH]c2nnc(-c3c(-c4ccccc4)nn4ccccc34)cc12 | 97.1

biological target: MAPK3 (human) (UniProt P27361); assay: as above; settings: compound 0.5 µM; ATP 10 µM

Row | SMILES | residual activity [%]
13 | O=C(NC(NC(=S)Nc1ccc(F)c([N+](=O)[O-])c1)C(Cl)(Cl)Cl)C(c1ccccc1)c1ccccc1 (stereo unspecified) | 120
14 | Cc1cc2ncc(-c3ccccc3)nc2cc1C | 106
15 | Nc1n[nH]c2nnc(-c3c(-c4ccccc4)nn4ccccc34)cc12 | 65.8

biological target: EPHB2 (human) (UniProt P29323); assay: as above; settings: compound 0.5 µM; ATP 10 µM

Row | SMILES | residual activity [%]
16 | O=C(NC(NC(=S)Nc1ccc(F)c([N+](=O)[O-])c1)C(Cl)(Cl)Cl)C(c1ccccc1)c1ccccc1 (stereo unspecified) | 101
17 | Cc1cc2ncc(-c3ccccc3)nc2cc1C | 96.7
18 | Nc1n[nH]c2nnc(-c3c(-c4ccccc4)nn4ccccc34)cc12 | 93.1

biological target: PBK (human) (UniProt Q96KB5); assay: as above; settings: compound 0.5 µM; ATP 10 µM

Row | SMILES | residual activity [%]
19 | O=C(NC(NC(=S)Nc1ccc(F)c([N+](=O)[O-])c1)C(Cl)(Cl)Cl)C(c1ccccc1)c1ccccc1 (stereo unspecified) | 116
20 | Cc1cc2ncc(-c3ccccc3)nc2cc1C | 94.5
21 | Nc1n[nH]c2nnc(-c3c(-c4ccccc4)nn4ccccc34)cc12 | 95

biological target: CLK1 (human) (UniProt P49759); assay: as above; settings: compound 0.5 µM; ATP 10 µM

Row | SMILES | residual activity [%]
22 | O=C(NC(NC(=S)Nc1ccc(F)c([N+](=O)[O-])c1)C(Cl)(Cl)Cl)C(c1ccccc1)c1ccccc1 (stereo unspecified) | 106
23 | Cc1cc2ncc(-c3ccccc3)nc2cc1C | 95.4
24 | Nc1n[nH]c2nnc(-c3c(-c4ccccc4)nn4ccccc34)cc12 | 108

biological target: NLK (human) (UniProt Q9UBE8); assay: as above; settings: compound 0.5 µM; ATP 10 µM

Row | SMILES | residual activity [%]
25 | O=C(NC(NC(=S)Nc1ccc(F)c([N+](=O)[O-])c1)C(Cl)(Cl)Cl)C(c1ccccc1)c1ccccc1 (stereo unspecified) | 106
26 | Cc1cc2ncc(-c3ccccc3)nc2cc1C | 92.8
27 | Nc1n[nH]c2nnc(-c3c(-c4ccccc4)nn4ccccc34)cc12 | 102

biological target: MAP3K5 (human) (UniProt Q99683); assay: as above; settings: compound 0.5 µM; ATP 10 µM

Row | SMILES | residual activity [%]
28 | O=C(NC(NC(=S)Nc1ccc(F)c([N+](=O)[O-])c1)C(Cl)(Cl)Cl)C(c1ccccc1)c1ccccc1 (stereo unspecified) | 97.1
29 | Cc1cc2ncc(-c3ccccc3)nc2cc1C | 107
30 | Nc1n[nH]c2nnc(-c3c(-c4ccccc4)nn4ccccc34)cc12 | 99.3

biological target: STK4 (human) (UniProt Q13043); assay: as above; settings: compound 0.5 µM; ATP 10 µM

Row | SMILES | residual activity [%]
31 | O=C(NC(NC(=S)Nc1ccc(F)c([N+](=O)[O-])c1)C(Cl)(Cl)Cl)C(c1ccccc1)c1ccccc1 (stereo unspecified) | 96.2
32 | Cc1cc2ncc(-c3ccccc3)nc2cc1C | 98.6
33 | Nc1n[nH]c2nnc(-c3c(-c4ccccc4)nn4ccccc34)cc12 | 99.1

biological target: MAPK8 (human) (UniProt P45983); assay: as above; settings: compound 0.5 µM; ATP 10 µM
Sequence (P45983 whole entry, looked up): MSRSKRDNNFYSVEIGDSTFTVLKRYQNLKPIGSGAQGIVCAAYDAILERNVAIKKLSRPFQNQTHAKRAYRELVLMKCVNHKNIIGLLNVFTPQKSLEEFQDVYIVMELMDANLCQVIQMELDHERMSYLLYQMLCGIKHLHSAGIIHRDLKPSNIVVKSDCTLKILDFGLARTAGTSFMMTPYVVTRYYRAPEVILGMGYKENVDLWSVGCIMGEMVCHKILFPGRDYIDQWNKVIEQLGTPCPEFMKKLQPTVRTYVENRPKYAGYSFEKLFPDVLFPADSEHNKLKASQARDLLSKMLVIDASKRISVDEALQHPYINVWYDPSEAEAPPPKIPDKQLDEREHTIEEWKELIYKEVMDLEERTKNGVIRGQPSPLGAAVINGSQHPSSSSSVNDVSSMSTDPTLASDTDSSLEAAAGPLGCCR

Row | SMILES | residual activity [%]
34 | O=C(NC(NC(=S)Nc1ccc(F)c([N+](=O)[O-])c1)C(Cl)(Cl)Cl)C(c1ccccc1)c1ccccc1 (stereo unspecified) | 82.1
35 | Cc1cc2ncc(-c3ccccc3)nc2cc1C | 101
36 | Nc1n[nH]c2nnc(-c3c(-c4ccccc4)nn4ccccc34)cc12 | 98

biological target: MAP4K2 (human) (UniProt Q12851); assay: as above; settings: compound 0.5 µM; ATP 10 µM

Row | SMILES | residual activity [%]
37 | O=C(NC(NC(=S)Nc1ccc(F)c([N+](=O)[O-])c1)C(Cl)(Cl)Cl)C(c1ccccc1)c1ccccc1 (stereo unspecified) | 111
38 | Cc1cc2ncc(-c3ccccc3)nc2cc1C | 113
39 | Nc1n[nH]c2nnc(-c3c(-c4ccccc4)nn4ccccc34)cc12 | 98.6

biological target: JAK2 JH1 JH2 (human) (UniProt O60674); assay: as above; settings: compound 0.5 µM; ATP 10 µM
Sequence (O60674 whole entry, looked up): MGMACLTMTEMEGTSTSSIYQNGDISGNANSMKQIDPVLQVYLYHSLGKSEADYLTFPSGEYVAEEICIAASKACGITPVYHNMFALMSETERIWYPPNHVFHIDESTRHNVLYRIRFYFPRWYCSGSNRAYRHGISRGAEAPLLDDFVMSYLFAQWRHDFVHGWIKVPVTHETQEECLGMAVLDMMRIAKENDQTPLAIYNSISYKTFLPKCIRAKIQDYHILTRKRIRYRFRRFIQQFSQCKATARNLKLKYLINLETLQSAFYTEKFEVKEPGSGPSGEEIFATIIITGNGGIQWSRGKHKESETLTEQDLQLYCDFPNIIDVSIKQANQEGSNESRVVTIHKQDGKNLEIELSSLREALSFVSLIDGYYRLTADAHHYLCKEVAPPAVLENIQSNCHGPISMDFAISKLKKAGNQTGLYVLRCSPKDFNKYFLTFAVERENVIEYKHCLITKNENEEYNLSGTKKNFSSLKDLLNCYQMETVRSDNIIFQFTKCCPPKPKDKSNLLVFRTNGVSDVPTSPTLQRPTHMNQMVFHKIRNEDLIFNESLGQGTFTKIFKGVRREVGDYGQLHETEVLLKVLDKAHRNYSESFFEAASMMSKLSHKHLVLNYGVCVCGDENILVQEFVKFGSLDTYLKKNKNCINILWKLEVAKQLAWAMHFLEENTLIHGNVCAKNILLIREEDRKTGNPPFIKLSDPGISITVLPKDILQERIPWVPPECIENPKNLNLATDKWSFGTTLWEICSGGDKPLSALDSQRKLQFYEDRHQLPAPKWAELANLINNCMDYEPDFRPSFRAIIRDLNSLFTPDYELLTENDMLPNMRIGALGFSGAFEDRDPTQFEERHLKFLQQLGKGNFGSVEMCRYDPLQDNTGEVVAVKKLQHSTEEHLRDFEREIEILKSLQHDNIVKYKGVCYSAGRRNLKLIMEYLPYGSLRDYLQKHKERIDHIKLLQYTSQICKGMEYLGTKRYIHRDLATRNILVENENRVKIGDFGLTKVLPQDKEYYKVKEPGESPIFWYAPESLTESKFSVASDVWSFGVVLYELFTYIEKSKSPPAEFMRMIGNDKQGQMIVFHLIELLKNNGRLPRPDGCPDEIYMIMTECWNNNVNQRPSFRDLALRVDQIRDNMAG

Row | SMILES | residual activity [%]
40 | O=C(NC(NC(=S)Nc1ccc(F)c([N+](=O)[O-])c1)C(Cl)(Cl)Cl)C(c1ccccc1)c1ccccc1 (stereo unspecified) | 99.9
41 | Cc1cc2ncc(-c3ccccc3)nc2cc1C | 97.3
42 | Nc1n[nH]c2nnc(-c3c(-c4ccccc4)nn4ccccc34)cc12 | 97.1

biological target: SYK (human) (UniProt P43405); assay: as above; settings: compound 0.5 µM; ATP 10 µM

Row | SMILES | residual activity [%]
43 | O=C(NC(NC(=S)Nc1ccc(F)c([N+](=O)[O-])c1)C(Cl)(Cl)Cl)C(c1ccccc1)c1ccccc1 (stereo unspecified) | 104
44 | Cc1cc2ncc(-c3ccccc3)nc2cc1C | 97.4
45 | Nc1n[nH]c2nnc(-c3c(-c4ccccc4)nn4ccccc34)cc12 | 97.4

biological target: GRK4 (human) (UniProt P32298); assay: as above; settings: compound 0.5 µM; ATP 10 µM
Sequence (P32298 whole entry, looked up): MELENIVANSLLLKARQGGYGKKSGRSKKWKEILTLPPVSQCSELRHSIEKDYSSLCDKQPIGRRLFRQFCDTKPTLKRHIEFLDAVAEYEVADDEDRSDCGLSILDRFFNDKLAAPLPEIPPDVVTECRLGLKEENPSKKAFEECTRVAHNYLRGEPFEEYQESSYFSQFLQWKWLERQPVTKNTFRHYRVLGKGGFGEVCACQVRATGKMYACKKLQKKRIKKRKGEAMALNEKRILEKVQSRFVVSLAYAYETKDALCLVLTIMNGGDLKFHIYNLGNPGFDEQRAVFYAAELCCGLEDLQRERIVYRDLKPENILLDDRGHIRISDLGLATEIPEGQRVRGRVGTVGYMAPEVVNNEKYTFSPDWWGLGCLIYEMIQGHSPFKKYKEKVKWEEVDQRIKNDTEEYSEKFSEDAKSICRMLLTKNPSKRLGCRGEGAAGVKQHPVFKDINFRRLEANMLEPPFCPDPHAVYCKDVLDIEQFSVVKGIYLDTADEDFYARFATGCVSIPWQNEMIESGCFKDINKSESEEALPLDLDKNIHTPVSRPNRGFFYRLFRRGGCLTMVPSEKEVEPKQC

Row | SMILES | residual activity [%]
46 | O=C(NC(NC(=S)Nc1ccc(F)c([N+](=O)[O-])c1)C(Cl)(Cl)Cl)C(c1ccccc1)c1ccccc1 (stereo unspecified) | 101
47 | Cc1cc2ncc(-c3ccccc3)nc2cc1C | 94.9
48 | Nc1n[nH]c2nnc(-c3c(-c4ccccc4)nn4ccccc34)cc12 | 103

biological target: STK33 (human) (UniProt Q9BYT3); assay: as above; settings: compound 0.5 µM; ATP 10 µM

Row | SMILES | residual activity [%]
49 | O=C(NC(NC(=S)Nc1ccc(F)c([N+](=O)[O-])c1)C(Cl)(Cl)Cl)C(c1ccccc1)c1ccccc1 (stereo unspecified) | 99.6
50 | Cc1cc2ncc(-c3ccccc3)nc2cc1C | 94.1
51 | Nc1n[nH]c2nnc(-c3c(-c4ccccc4)nn4ccccc34)cc12 | 100

biological target: TSSK2 (human) (UniProt Q96PF2); assay: as above; settings: compound 0.5 µM; ATP 10 µM
Sequence (Q96PF2 whole entry, looked up): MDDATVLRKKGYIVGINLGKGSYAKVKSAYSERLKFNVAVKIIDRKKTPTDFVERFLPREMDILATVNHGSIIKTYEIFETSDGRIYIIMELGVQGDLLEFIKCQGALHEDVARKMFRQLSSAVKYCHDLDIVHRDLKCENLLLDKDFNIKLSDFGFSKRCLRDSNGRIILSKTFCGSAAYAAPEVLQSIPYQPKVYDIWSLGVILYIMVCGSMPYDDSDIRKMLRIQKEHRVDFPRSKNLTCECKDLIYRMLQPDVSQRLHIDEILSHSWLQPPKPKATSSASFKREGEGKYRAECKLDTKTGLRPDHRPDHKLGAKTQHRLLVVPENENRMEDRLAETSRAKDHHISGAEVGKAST

Row | SMILES | residual activity [%]
52 | O=C(NC(NC(=S)Nc1ccc(F)c([N+](=O)[O-])c1)C(Cl)(Cl)Cl)C(c1ccccc1)c1ccccc1 (stereo unspecified) | 92.7
53 | Cc1cc2ncc(-c3ccccc3)nc2cc1C | 87.5
54 | Nc1n[nH]c2nnc(-c3c(-c4ccccc4)nn4ccccc34)cc12 | 104

biological target: INSRR (human) (UniProt P14616); assay: as above; settings: compound 0.5 µM; ATP 10 µM

Row | SMILES | residual activity [%]
55 | O=C(NC(NC(=S)Nc1ccc(F)c([N+](=O)[O-])c1)C(Cl)(Cl)Cl)C(c1ccccc1)c1ccccc1 (stereo unspecified) | 93.7
56 | Cc1cc2ncc(-c3ccccc3)nc2cc1C | 95.5
57 | Nc1n[nH]c2nnc(-c3c(-c4ccccc4)nn4ccccc34)cc12 | 95.7

biological target: MYLK (human) (UniProt Q15746); assay: as above; settings: compound 0.5 µM; ATP 10 µM
Sequence (Q15746 whole entry, looked up): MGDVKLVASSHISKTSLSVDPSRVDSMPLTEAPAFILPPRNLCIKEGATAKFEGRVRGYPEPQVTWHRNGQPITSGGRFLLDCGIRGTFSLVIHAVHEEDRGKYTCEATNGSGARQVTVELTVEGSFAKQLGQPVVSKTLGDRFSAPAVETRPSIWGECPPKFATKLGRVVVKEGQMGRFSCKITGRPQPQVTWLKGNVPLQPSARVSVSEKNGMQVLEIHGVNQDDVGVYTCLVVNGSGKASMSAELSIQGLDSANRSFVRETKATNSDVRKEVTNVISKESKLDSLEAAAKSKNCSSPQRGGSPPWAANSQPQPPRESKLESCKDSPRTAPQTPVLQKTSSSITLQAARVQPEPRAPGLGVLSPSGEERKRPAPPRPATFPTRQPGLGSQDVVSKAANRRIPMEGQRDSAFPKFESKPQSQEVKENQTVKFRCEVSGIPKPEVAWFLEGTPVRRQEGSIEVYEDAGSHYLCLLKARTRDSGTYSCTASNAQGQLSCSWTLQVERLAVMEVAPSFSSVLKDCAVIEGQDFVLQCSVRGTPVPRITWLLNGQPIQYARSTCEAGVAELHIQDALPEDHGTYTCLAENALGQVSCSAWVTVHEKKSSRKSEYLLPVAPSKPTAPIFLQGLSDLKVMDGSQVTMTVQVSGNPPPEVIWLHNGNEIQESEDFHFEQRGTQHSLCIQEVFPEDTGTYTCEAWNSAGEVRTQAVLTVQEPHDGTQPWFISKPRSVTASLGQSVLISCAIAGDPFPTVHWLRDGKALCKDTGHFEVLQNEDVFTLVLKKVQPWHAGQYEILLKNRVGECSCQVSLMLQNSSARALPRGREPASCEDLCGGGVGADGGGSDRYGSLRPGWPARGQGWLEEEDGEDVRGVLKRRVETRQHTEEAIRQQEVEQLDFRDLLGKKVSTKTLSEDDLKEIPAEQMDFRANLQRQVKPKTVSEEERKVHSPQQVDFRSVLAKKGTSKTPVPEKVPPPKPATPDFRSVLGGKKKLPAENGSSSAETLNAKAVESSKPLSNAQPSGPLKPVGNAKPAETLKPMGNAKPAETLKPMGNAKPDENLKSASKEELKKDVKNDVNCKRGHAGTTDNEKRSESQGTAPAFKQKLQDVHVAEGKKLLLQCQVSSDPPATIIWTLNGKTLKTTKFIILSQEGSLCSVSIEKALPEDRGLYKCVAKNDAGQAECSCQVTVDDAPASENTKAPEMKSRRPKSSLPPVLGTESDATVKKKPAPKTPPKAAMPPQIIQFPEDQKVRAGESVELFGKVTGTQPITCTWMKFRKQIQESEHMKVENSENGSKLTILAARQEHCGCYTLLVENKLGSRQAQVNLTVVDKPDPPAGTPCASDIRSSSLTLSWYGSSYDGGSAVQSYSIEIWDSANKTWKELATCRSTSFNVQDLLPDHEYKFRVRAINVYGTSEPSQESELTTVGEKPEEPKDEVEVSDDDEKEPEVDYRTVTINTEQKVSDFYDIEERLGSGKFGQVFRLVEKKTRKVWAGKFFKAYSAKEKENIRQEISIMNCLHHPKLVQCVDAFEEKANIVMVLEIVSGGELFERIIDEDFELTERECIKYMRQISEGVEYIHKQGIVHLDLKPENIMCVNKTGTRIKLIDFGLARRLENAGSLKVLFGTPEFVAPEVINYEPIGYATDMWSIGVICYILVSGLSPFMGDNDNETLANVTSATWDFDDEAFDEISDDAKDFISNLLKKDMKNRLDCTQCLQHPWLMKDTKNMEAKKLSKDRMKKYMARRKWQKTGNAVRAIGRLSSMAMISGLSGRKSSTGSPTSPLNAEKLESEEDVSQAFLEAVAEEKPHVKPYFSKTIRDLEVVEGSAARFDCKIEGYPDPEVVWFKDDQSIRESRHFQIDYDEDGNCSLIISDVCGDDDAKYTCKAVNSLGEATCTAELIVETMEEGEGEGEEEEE

Row | SMILES | residual activity [%]
58 | O=C(NC(NC(=S)Nc1ccc(F)c([N+](=O)[O-])c1)C(Cl)(Cl)Cl)C(c1ccccc1)c1ccccc1 (stereo unspecified) | 99.6
59 | Cc1cc2ncc(-c3ccccc3)nc2cc1C | 102
60 | Nc1n[nH]c2nnc(-c3c(-c4ccccc4)nn4ccccc34)cc12 | 98.3

biological target: MAP3K10 (human) (UniProt Q02779); assay: as above; settings: compound 0.5 µM; ATP 10 µM

Row | SMILES | residual activity [%]
61 | O=C(NC(NC(=S)Nc1ccc(F)c([N+](=O)[O-])c1)C(Cl)(Cl)Cl)C(c1ccccc1)c1ccccc1 (stereo unspecified) | 98.9
